Experimental data published in US9610249B2, “Dosage and administration for preventing cardiotoxicity in treatment with ERbB2-targeted immunoliposomes comprising anthracycline chemotherapeutic agents” (MERRIMACK PHARMACEUTICALS, INC., priority 2010, dated 2017).

Tests used:
phospho-AKT (pAKT) = assay: Signaling in iPS-derived cardiomyocytes; type: cell-based, human; details: 24 hours pretreatment
Method: (§1) Cells are stained and imaged using high content microscopy as described above for (A) pAKT and (B) pERK following a10 minute stimulation with 10 nM and 5 nM of heregulin, respectively. The following primary antibodies are used at a 1:400 dilution in blocking buffer: pERK antibody—Cell Signaling Technology (CST—Danvers Mass.)—Catalog 9106L (Phospho-p44/42 MAPK (Erk1/2) (Thr202/Tyr204) (E10) Mouse mAb #9106); pAKT antibody—CST—Catalog 4060L (Phospho-Akt (Ser473) (D9E) XP™ Rabbit mAb #4060). Secondary antibodies are Anti-mouse IgG (H+L), F(ab′)2 Fragment (Alexa Fluor® 647 Conjugate)—CST—Catalog 4410; Anti-rabbit IgG (H+L), F(ab′)2 Fragment (Alexa Fluor® 647 Conjugate)—CST—Catalog 4414. Whole cell stain and DNA stain (Hoechst 33342) are used as described above. Images are analyzed and individual cells are segmented on the basis of Hoechst 33342 nuclear staining. Single cell signal intensity for each stain is quantified and represented as the mean relative intensity of individual cells.
(§2) After stimulation with 10 nM (FIG. 6A) and 5 nM (FIG. 6B) of heregulin (HRG) for 10 min, the levels of phospho-AKT (pAKT, FIG. 6A) and phospho-ERK (pERK, FIG. 6B) were measured by high content microscopy as described above.

phospho-ERK (pERK) = assay: Signaling in iPS-derived cardiomyocytes; type: cell-based, human; details: 24 hours pretreatment
Method: as §1, §2

BT474-M3 cells = assay: Binding and internalization into HER2 over-expressing tumor cells (total and nuclear doxorubicin); type: cell-based, human; details: BT474-M3 (1.7×10^6 HER2/cell), 15 μg/ml, up to 3 h
ESCd cardiomyocytes = assay: Uptake of liposomes in cardiomyocytes (HPLC); type: cell-based, human; details: ESCd cardiomyocytes (approximately 70,000 HER2 receptors per cell), 15.0 μg/ml dox equiv.
Method: (§3) iPSd cardiomyocytes are plated per the manufacturer's instructions (Cell Dynamics International Cat #CMC-100-110-001) in a 24-well tissue culture plate at 250,000 cells/well. Two days later, the 0.5 ml of media in the wells is removed and replaced with 0.5 ml of 15.0 μg/ml (dox equiv.) of MM-302, PLD or free doxorubicin. The plates are swirled in a “figure 8 fashion” 20 times to maximize exposure of the cells to the liposomes. Cells are incubated with MM-302, PLD or free doxorubicin for the indicated time period after which the media are removed and the cells are washed once with 0.5 ml of PBS. The PBS is removed and 0.5 ml of 0.05% trypsin is added to each well. The cells are monitored, and once detachment begins, 0.5 ml of medium containing FBS is added to each well to inactivate the trypsin. The cells are collected and placed in microcentrifuge tubes. The cells are spun at 1,500 rpm for 5 minutes at 4° C. […] Samples are run on the HPLC machine and concentration per sample is determined by relating values to a doxorubicin standard curve.
(§4) To determine if the level of HER2 expression on cardiomyocytes is sufficient to induce uptake of MM-302, total cellular doxorubicin was quantified by HPLC following treatment of ESCd (FIG. 4A) and iPSd (FIG. 4B) cardiomyocytes.

iPSd cardiomyocytes [1] = assay: Uptake of liposomes in cardiomyocytes (HPLC); type: cell-based, human; details: iPSd cardiomyocytes (approximately 200,000 HER2 receptors per cell), 15.0 μg/ml dox equiv.
Method: as §3, §4

iPSd cardiomyocytes [2] = type: cell-based, human
Description: Exposure to low levels of doxorubicin can be cytotoxic.

gamma-H2AX = type: cell-based, human
Method: (§5) Cardiomyocytes are treated as described above. Cells are fixed using 3.7% formaldehyde, washed twice with PBS containing 0.1% Tween-20 (PBS-T), and permeabilized with methanol. Cells are blocked using a 1:1 mixture of LI-COR® Odyssey® Blocking Buffer (Lincoln, Nebr.) and PBS-T for 1 h at room temperature (RT). Cells are stained with a 1:400 dilution of the indicated primary antibody from Cell Signaling Technology (Beverly, Mass.) and incubated shaking at 4° C. overnight. Cells are washed and incubated with a 1:2,000 dilution of the fluorescently labeled secondary antibody for 1 h at RT. Cells are stained with a 1:10,000 dilution of Hoechst 33342 and 1:1,000 dilution of Whole Cell Stain from Pierce Protein Research Products (Rockford, Ill.) for 30 min at RT to allow visualization of DNA and the whole cell, respectively. Plates are scanned using the Applied Precision Instruments ArrayWorx® High Content Scanner (Issaquah, Wash.) with a 10× objective for Hoechst 33342/Whole Cell Stain (460 nm), doxorubicin (595 nm), and APC/DiI5 (657 nm). Images are analyzed using the software ImageRail (as described in Millard et al., Nat Methods. 2011; 8:487-92). An intensity threshold is established for nuclear and whole cell signals. This threshold is then applied to all images and used to segment individual cells. […]

phospho-p53 = assay: High-content analysis of cell stress in cardiomyocytes; type: cell-based, human; details: ESCd cardiomyocytes, 3 h treatment, 24 h fresh media
Method: as §5

phospho-HSP27 = type: cell-based
Method: as §5

cleaved PARP (cPARP) = type: cell-based
Method: as §5

[3] = Biodistribution of doxorubicin in heart tissue of NCI-N87 tumor bearing mice (HPLC); details: 3 mg/kg dox equiv. i.v.
Method: 5-7-week-old female nude mice are purchased from Charles River Laboratories or Taconic Farms, Inc (NCr nude mice). Unless otherwise indicated, mice are inoculated with BT474-M3 breast cancer cells or NCI-N87 gastric cancer cells (NCI-DTP, 10×10^6 cells in 100 μl RPMI) into the right dorsal flank of the mice (subcutaneous injection, s.c.). When the tumors reach an average volume of ˜200 mm^3, studies are performed as described below.
(§6) Mice are randomized into 4 groups that received a single intravenous (i.v.) dose of either PBS, doxorubicin, MM-302-DiI5 or PLD-DiI5 (all at 3 mg/kg), respectively. Mice (n=4/time point/group) are sacrificed at 0.5, 4, 24 and 96 h (doxorubicin) or 168 h (MM-302-DiI5 and PLD-DiI5) after the single dose. Five minutes before sacrificing, mice are injected i.v. with 100 μl of FITC-lectin, to label the vasculature.
Heart tissues are weighed and disaggregated with 1 mL H2O using a TissueLyser™ (Qiagen) for 3 min. 100 μl of the homogenate is then transferred into a new tube and 900 μl of 1% acetic acid/methanol is added. For the cultured cells, cells are treated with drug, as described above, trypsinized and lysed using 1.0% acetic acid in methanol. Lysates are vortexed for 10 sec. and placed at −80° C. for 1 h. Samples are spun at room temperature (RT) for 10 min at 10,000 RPM. Supernatants and doxorubicin standards are analyzed by HPLC (Dionex) using a C18 reverse phase column (Synergi™ POLAR-RP® 80 Å, 250×4.60 mm 4 μm column). Doxorubicin is eluted running a gradient from 30% acetonitrile; 70% 0.1% trifluoroacetic acid (TFA)/H2O to 55% acetonitrile; 45% 0.1% TFA/H2O during a 7 min span at a flow rate of 1.0 ml/min. The doxorubicin peak is detected at 6.5 min using an in-line fluorescence detector excited at 485 nm, and emitting at 590 nm.
The macro-level biodistributions of MM-302 (square), PLD (UT-PLD, triangle) and doxorubicin (free dox, circle) were compared in mouse heart tissue (FIG. 7A), human xenograft tumor tissue (FIG. 7B) and paw tissue (FIG. 7C) in NCI-N87 tumor bearing mice inoculated as described above. Mice (n=4/time point/group) were injected i.v. with MM-302, PLD, or free doxorubicin (all at 3 mg/kg dox equiv.) and hearts were collected at 0.5, 4, 24, and 96 h (for dox) or 168 h (for MM-302 and PLD) post injection and doxorubicin quantified by HPLC (FIG. 7A).

[4] = Nuclear doxorubicin in heart sections (confocal microscopy and image analysis); details: 3 mg/kg dox equiv. i.v.
Method: as §6

[5] = tested on: Troponin I (iPSd cardiomyocytes)
Method: 15,000 iPSd (iCELL®) cardiomyocytes (Cellular Dynamics International, Madison Wis.) cells are plated per the manufacturer's protocol. […] The supernatant is collected and analyzed using a human Troponin I ELISA (Catalog #: GWB-83A61F, Genway Biotech, San Diego Calif.) per the manufacturer's protocol. A PrestoBlue® Cell Viability Assay (Catalog #: A-13261, Invitrogen, Grand Island, N.Y.) is performed on the remaining cells in 100 μl per the manufacturer's protocol.

[6] = patients; cited from earlier work

Question: Which “basal phosphorylation of AKT” value (phospho-AKT (pAKT); no heregulin) does the source give for `CS(=O)(=O)CCNCc1ccc(-c2ccc3ncnc(Nc4ccc(OCc5cccc(F)c5)c(Cl)c4)c3c2)o1` [lapatinib] here?
Answer: The value was “reduction in basal phosphorylation”.

Question: And the “heregulin (HRG)-induced phosphorylation of AKT” value (phospho-AKT (pAKT); 10 nM heregulin, 10 min)?
Answer: Its value is “complete inhibition of HRG-induced phosphorylation”.

Question: And the “basal phosphorylation of ERK” value (phospho-ERK (pERK); no heregulin)?
Answer: The value was “reduction in basal phosphorylation”.

Question: What about the “heregulin (HRG)-induced phosphorylation of ERK” value (phospho-ERK (pERK); 5 nM heregulin, 10 min) of the same compound?
Answer: Its value is “complete inhibition of HRG-induced phosphorylation”.

Question: With `COc1cccc2c1C(=O)c1c(O)c3c(c(O)c1C2=O)C[C@@](O)(C(=O)CO)C[C@@H]3O[C@H]1C[C@H](N)[C@H](O)[C@H](C)O1` [doxorubicin, Doxorubicin] as the compound, how does the “total cell binding and nuclear doxorubicin accumulation” value (BT474-M3 cells) read?
Answer: Its value is “freely enter cells and accumulate in the nucleus”.

Question: And the “total cellular doxorubicin (uptake)” value (ESCd cardiomyocytes)?
Answer: Its value is “doxorubicin accumulation in all cells”.

Question: And the “total cellular doxorubicin (uptake)” value (iPSd cardiomyocytes [1])?
Answer: The value was “doxorubicin accumulation in all cells”.

Question: What about the “effect on cardiomyocyte viability” value (iPSd cardiomyocytes [2]) of the same compound?
Answer: The value was “marked decrease in viability”.

Question: What about the “nuclear gamma-H2AX” value (gamma-H2AX) of the same compound?
Answer: The value was “dose-dependent increase in nuclear gamma-H2AX”.

Question: What about the phospho-p53 (phospho-p53) of the same compound?
Answer: Its phospho-p53 is “dose-dependent increase”.

Question: And the phospho-HSP27 (phospho-HSP27)?
Answer: Its phospho-HSP27 is “dose-dependent increase”.

Question: And the “nuclear cleaved PARP (cPARP) at 5.0 μg/ml” value (cleaved PARP (cPARP))?
Answer: The value was “increase in nuclear cleaved PARP”.

Question: And the “clearance of doxorubicin from the heart tissue” value [3]?
Answer: The value was “faster compared to MM-302 and PLD”.

Question: And the “time of peak doxorubicin exposure in the heart” value [3]?
Answer: Its value is 0.5 h.

Question: What about the “doxorubicin in the heart at 0.5 h” value ([3]; 0.5 h post injection) of the same compound?
Answer: The value was 10 % of injected dose (i.d.)/g tissue.

Question: What about the “doxorubicin in the heart at 24 h” value ([3]; 24 h post injection) of the same compound?
Answer: Its value is 0.77 % of i.d./g tissue.

Question: What about the “nuclei positive for doxorubicin in heart tissue at 0.5 h” value ([4]; 0.5 h) of the same compound?
Answer: Its value is “about 50%”.

Question: What about the “nuclei positive for doxorubicin in heart tissue at 4 h” value ([4]; 4 h) of the same compound?
Answer: The value was 23%.

Question: And the “nuclei positive for doxorubicin in heart tissue at 24 h” value ([4]; 24 h)?
Answer: Its value is “returned to basal levels”.

Question: And the “Troponin I in supernatant” value [5]?
Answer: The value was “marked increase of Troponin I”.

Question: And the “cumulative doxorubicin exposure that increases the potential for cardiomyopathy and heart failure” value [6]?
Answer: Its value is “above 550 mg/m^2”.
